# Source: ChEMBL document CHEMBL1201862, “PubChem BioAssay data set” (2004)
#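 Following 48 hours of exposure in 96-well plates, responses at five concentrations were used to interpolate endpoints linearly. At the GI50, growth is halved.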 Active and inactive are the calls of the source. Cut-off read from the data, not from the text of the source: active = GI50 up to about 1.1 µM and inactive = higher.
# What was measured:
# Assay in all cases: DTP human tumour cell line panel, 48 h
# NCI/ADR-RES = test system: NCI/ADR-RES
# K562 = test system: K562
# HT-29 = test system: HT-29
# HOP-62 = test system: HOP-62
# HCC 2998 = test system: HCC 2998
# HOP-92 = test system: HOP-92
# M14 = test system: M14
# BT-549 = test system: BT-549
# ACHN = test system: ACHN
# CCRF-CEM = test system: CCRF-CEM
# NCI-H460 = test system: NCI-H460
# UACC-62 = test system: UACC-62
# UACC-257 = test system: UACC-257
# A498 = test system: A498
# PC-3 = test system: PC-3
# COLO 205 = test system: COLO 205
# SF-539 = test system: SF-539
# U-251 = test system: U-251
# 786-0 = test system: 786-0
Compound,GI50 (NCI/ADR-RES),GI50 (K562),GI50 (HT-29),GI50 (HOP-62),GI50 (HCC 2998),GI50 (HOP-92),GI50 (M14),GI50 (BT-549),GI50 (ACHN),GI50 (CCRF-CEM),GI50 (NCI-H460),GI50 (UACC-62),GI50 (UACC-257),GI50 (A498),GI50 (PC-3),GI50 (COLO 205),GI50 (SF-539),GI50 (U-251),GI50 (786-0)
CC(=O)OCC1OC(n2c(-c3ccc(C)cc3)cc(-c3ccco3)c(C#N)c2=S)C(OC(C)=O)C(OC(C)=O)C1OC(C)=O (centres undefined),84.3 µM (inactive),> 100 µM (inactive),> 100 µM (inactive),42.7 µM (inactive),> 100 µM (inactive),16.6 µM (inactive),83.9 µM (inactive),38.7 µM (inactive),75.5 µM (inactive),> 100 µM (inactive),24.7 µM (inactive),18.2 µM (inactive),> 100 µM (inactive),61.7 µM (inactive),> 100 µM (inactive),> 100 µM (inactive),17.4 µM (inactive),33.8 µM (inactive),
CCOc1nc2sc3c(c2c(=O)n1CCSSCCn1c(OCC)nc2sc4c(c2c1=O)CCCC4)CCCC3,> 100 µM (inactive),> 100 µM (inactive),> 100 µM (inactive),> 100 µM (inactive),> 100 µM (inactive),,> 100 µM (inactive),> 100 µM (inactive),> 100 µM (inactive),,> 100 µM (inactive),> 100 µM (inactive),> 100 µM (inactive),> 100 µM (inactive),> 100 µM (inactive),> 100 µM (inactive),> 100 µM (inactive),> 100 µM (inactive),> 100 µM (inactive)
COc1ccc2oc(=N)c(C(=O)NCc3ccccc3)cc2c1,14.9 µM (inactive),41.6 µM (inactive),34.7 µM (inactive),21.2 µM (inactive),,,33.2 µM (inactive),17.7 µM (inactive),13.3 µM (inactive),62.1 µM (inactive),28.5 µM (inactive),,24.8 µM (inactive),15.2 µM (inactive),30.5 µM (inactive),31.7 µM (inactive),25.2 µM (inactive),16.9 µM (inactive),27.9 µM (inactive)
COC(OC)C1OC(CO)C(n2cc(F)c(=O)[nH]c2=O)C1O (centres undefined),> 100 µM (inactive),> 100 µM (inactive),> 100 µM (inactive),> 100 µM (inactive),> 100 µM (inactive),> 100 µM (inactive),> 100 µM (inactive),> 100 µM (inactive),> 100 µM (inactive),> 100 µM (inactive),> 100 µM (inactive),> 100 µM (inactive),> 100 µM (inactive),> 100 µM (inactive),> 100 µM (inactive),10.7 µM (inactive),> 100 µM (inactive),> 100 µM (inactive),
Cc1oc2c(c1C)S(=O)(=O)C(C#N)=C(N(C)C)N2,> 100 µM (inactive),> 100 µM (inactive),> 100 µM (inactive),> 100 µM (inactive),> 100 µM (inactive),> 100 µM (inactive),> 100 µM (inactive),> 100 µM (inactive),> 100 µM (inactive),,> 100 µM (inactive),> 100 µM (inactive),> 100 µM (inactive),> 100 µM (inactive),> 100 µM (inactive),,> 100 µM (inactive),> 100 µM (inactive),> 100 µM (inactive)
Clc1ccc(-c2c3nc(c(-c4ccc(Cl)cc4)c4ccc([nH]4)c(-c4ccc(Cl)cc4)c4nc(c(-c5ccc(Cl)cc5)c5ccc2[nH]5)C=C4)C=C3)cc1,> 100 µM (inactive),> 100 µM (inactive),> 100 µM (inactive),> 100 µM (inactive),> 100 µM (inactive),> 100 µM (inactive),> 100 µM (inactive),> 100 µM (inactive),> 100 µM (inactive),> 100 µM (inactive),> 100 µM (inactive),> 100 µM (inactive),> 100 µM (inactive),,> 100 µM (inactive),> 100 µM (inactive),> 100 µM (inactive),> 100 µM (inactive),> 100 µM (inactive)
Cc1cc2nc3c(C#N)c(-c4ccccc4)cc(Nc4ccc(Cl)cc4)n3c2cc1C,> 100 µM (inactive),,,> 100 µM (inactive),> 100 µM (inactive),,> 100 µM (inactive),> 100 µM (inactive),> 100 µM (inactive),4.53 µM (inactive),28.5 µM (inactive),,> 100 µM (inactive),> 100 µM (inactive),> 100 µM (inactive),> 100 µM (inactive),> 100 µM (inactive),15.9 µM (inactive),> 100 µM (inactive)
CC(NC(=O)C(Cc1ccc(OC(=O)c2ccccc2)cc1)NC(=O)OC(C)(C)C)C(=O)NCC(=O)NC(Cc1ccccc1)NC(=O)OCc1ccccc1 (centres undefined),> 10 µM (inactive),> 100 µM (inactive),> 100 µM (inactive),> 100 µM (inactive),,> 100 µM (inactive),> 100 µM (inactive),> 100 µM (inactive),> 100 µM (inactive),,> 100 µM (inactive),> 100 µM (inactive),,28.5 µM (inactive),> 100 µM (inactive),> 100 µM (inactive),> 100 µM (inactive),> 100 µM (inactive),> 100 µM (inactive)
CC1=NN=C(N)N/C1=C\C(Sc1ccc(Cl)cc1)c1ccc([N+](=O)[O-])cc1 (centres undefined),> 100 µM (inactive),62.4 µM (inactive),> 100 µM (inactive),> 100 µM (inactive),> 100 µM (inactive),> 100 µM (inactive),62.1 µM (inactive),80 µM (inactive),58.9 µM (inactive),27.5 µM (inactive),> 100 µM (inactive),91.6 µM (inactive),91.4 µM (inactive),> 100 µM (inactive),66.7 µM (inactive),> 100 µM (inactive),,66.7 µM (inactive),38.1 µM (inactive)
COc1cc(-c2coc3c(OC)c(OC4OC(CO)C(O)C(O)C4O)c(OC)cc3c2=O)cc(OC)c1C (centres undefined),7.36 µM (inactive),7.29 µM (inactive),7.03 µM (inactive),15.2 µM (inactive),3.89 µM (inactive),17.7 µM (inactive),4.45 µM (inactive),4.04 µM (inactive),7.55 µM (inactive),3.75 µM (inactive),8.75 µM (inactive),4.42 µM (inactive),14.2 µM (inactive),,7.01 µM (inactive),17.9 µM (inactive),3.69 µM (inactive),3.7 µM (inactive),1.28 µM (inactive)
O=C1OC(C2Cc3ccccc3C2=O)c2ccccc21 (centres undefined),> 100 µM (inactive),> 100 µM (inactive),26.1 µM (inactive),> 100 µM (inactive),> 100 µM (inactive),> 100 µM (inactive),> 100 µM (inactive),> 100 µM (inactive),> 100 µM (inactive),> 100 µM (inactive),> 100 µM (inactive),> 100 µM (inactive),> 100 µM (inactive),,> 100 µM (inactive),> 100 µM (inactive),> 100 µM (inactive),> 100 µM (inactive),> 100 µM (inactive)
O=C1NCC2(CCN(Cc3ccccc3)CC2)N1,> 100 µM (inactive),> 100 µM (inactive),> 100 µM (inactive),> 100 µM (inactive),> 100 µM (inactive),> 100 µM (inactive),> 100 µM (inactive),> 100 µM (inactive),> 100 µM (inactive),> 100 µM (inactive),> 100 µM (inactive),> 100 µM (inactive),> 100 µM (inactive),,> 100 µM (inactive),> 100 µM (inactive),> 100 µM (inactive),> 100 µM (inactive),> 100 µM (inactive)
O=C(c1cccs1)N(C(=O)N1CCC(c2ccccc2)CC1)c1ccccc1,24.8 µM (inactive),22.7 µM (inactive),25.4 µM (inactive),36 µM (inactive),,,40.6 µM (inactive),27 µM (inactive),63.1 µM (inactive),95.5 µM (inactive),43.7 µM (inactive),50.6 µM (inactive),40 µM (inactive),51.4 µM (inactive),0.873 µM (active),27.2 µM (inactive),> 100 µM (inactive),46 µM (inactive),> 100 µM (inactive)
Cc1cnc(/C=N\NC(N)=S)c2cccc(N)c12,1.84 µM (inactive),0.881 µM (active),0.711 µM (active),0.904 µM (active),0.578 µM (active),,,0.536 µM (active),0.387 µM (active),0.278 µM (active),0.538 µM (active),0.359 µM (active),2.54 µM (inactive),10.8 µM (inactive),2.27 µM (inactive),1.4 µM (inactive),0.676 µM (active),0.604 µM (active),
Nc1n[nH]c2nc3ccccc3nc12 [QUINOXALINE1],> 100 µM (inactive),> 100 µM (inactive),59.6 µM (inactive),61 µM (inactive),> 100 µM (inactive),> 100 µM (inactive),,64.6 µM (inactive),36 µM (inactive),34.4 µM (inactive),84.7 µM (inactive),45 µM (inactive),> 100 µM (inactive),33.7 µM (inactive),> 100 µM (inactive),61.8 µM (inactive),61.7 µM (inactive),> 100 µM (inactive),
CC(C)CNCCc1ccccn1,> 100 µM (inactive),,> 100 µM (inactive),> 100 µM (inactive),> 100 µM (inactive),> 100 µM (inactive),> 100 µM (inactive),> 100 µM (inactive),> 100 µM (inactive),> 100 µM (inactive),> 100 µM (inactive),> 100 µM (inactive),> 100 µM (inactive),> 100 µM (inactive),> 100 µM (inactive),> 100 µM (inactive),,> 100 µM (inactive),> 100 µM (inactive)
